Assay results published in publication PMC4777574, “Pharmacological Inhibition of Monoacylglycerol O-Acyltransferase 2 Improves Hyperlipidemia, Obesity, and Diabetes by Change in Intestinal Fat Utilization” (PLoS ONE, 2016).

Assays:
[1] = target: T1, Monoacylglycerol O-acyltransferase 2 (MGAT2) (Mus musculus, UniProt Q80W94); assay: MGAT2 enzyme inhibition IC50 (assay details not given); anorectic effect lost in MGAT2 KO mice; format: biochemical
T1 construct: gene Mogat2

[2] = target: T2, Monoacylglycerol O-acyltransferase 2 (MGAT2) (Homo sapiens, UniProt Q3SYC2); assay: MGAT2 enzyme inhibition IC50 (assay details not given); format: biochemical
T2 construct: gene MOGAT2
T2 sequence (Q3SYC2 whole entry): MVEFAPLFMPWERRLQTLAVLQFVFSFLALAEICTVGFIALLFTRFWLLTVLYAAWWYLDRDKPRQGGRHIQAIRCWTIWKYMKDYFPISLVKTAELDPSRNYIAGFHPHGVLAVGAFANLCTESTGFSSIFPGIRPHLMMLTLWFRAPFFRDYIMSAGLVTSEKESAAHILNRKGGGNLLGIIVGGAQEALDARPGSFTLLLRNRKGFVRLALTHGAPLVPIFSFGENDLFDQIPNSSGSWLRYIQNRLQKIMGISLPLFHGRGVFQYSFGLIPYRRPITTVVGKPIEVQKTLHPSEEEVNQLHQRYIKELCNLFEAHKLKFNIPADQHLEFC

T1 sequence (Q80W94 whole entry): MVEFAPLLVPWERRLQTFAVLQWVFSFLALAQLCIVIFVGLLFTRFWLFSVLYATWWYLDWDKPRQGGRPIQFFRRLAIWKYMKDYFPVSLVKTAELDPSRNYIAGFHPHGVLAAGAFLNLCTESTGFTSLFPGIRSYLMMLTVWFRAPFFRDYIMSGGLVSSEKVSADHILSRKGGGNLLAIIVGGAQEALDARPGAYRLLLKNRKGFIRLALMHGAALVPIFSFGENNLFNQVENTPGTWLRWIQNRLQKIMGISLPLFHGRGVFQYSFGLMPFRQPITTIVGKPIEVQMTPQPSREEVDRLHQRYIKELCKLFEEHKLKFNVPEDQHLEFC

Q: `Cn1nc(C(F)(F)F)cc1-c1cnc(N2CCc3cc(S(=O)(=O)Nc4c(F)cc(Cl)cc4F)cc(N4CCCC4=O)c32)nc1` [compA, compound A] was tested. Which IC50 [1] did it give?
A: The IC50 was 2.4 nM.

Q: What about the IC50 [2] of the same molecule?
A: Its IC50 is 7.8 nM.
